{
  "source": "patent US11319299B2",
  "about": "“Substituted carboxamides as inhibitors of WDR5 protein-protein binding” (PROPELLON THERAPEUTICS INC., priority 2016, dated 2022)",
  "data": [
    {"system": "MV4-11 cells", "assay": "Cell proliferation assay (ATPlite)", "type": "cell-based", "conditions": "Homo sapiens, MV4-11, 120 h; MV-411 cells, five days; read-out: In vitro whole cell potency in MV-411 cells, (IC50)", "method": "(iv) Cell Proliferation Assay\nMV4-11 cells were seeded into a 96-well plate at 1,000 cells/well in 150 μl medium (Alpha-MEM containing 10% FBS, 100 μg/ml Normocin, and 50 μg/ml Gentamycin, Invitrogen). A HP D300 digital dispenser was used to dose cells with DMSO or test compounds across a 10-point range of concentrations (high dose of 10 μM), and cultures were grown in a humidified 5% CO2 incubator at 37° C. After five days, plates were removed from the incubator and equilibrated to room temperature. An equal volume of ATPlite assay reagent was added to each well, and samples were processed according to manufacturer's instructions (Perkin Elmer). Luminescent signal was measured using an Envision plate reader equipped with a US-Luminescence detector.", "units": {"IC50": "nM"}, "values": [
      {"smiles": "CN1CCN(c2cc(F)c(C3=CCOCC3)cc2NC(=O)c2c[nH]c(=O)cc2C(F)(F)F)CC1", "note": "[Example 22, N-[5-(3,6-dihydro-2H-pyran-4-yl)-4-fluoro-2-(4-methylpiperazin-1-yl)phenyl]-6-oxo-4-(trifluoromethyl)-1H-pyridine-3-carboxamide]", "IC50": 5270},
      {"smiles": "CN1CCN(c2cc(F)c(C3=CCNCC3)cc2NC(=O)c2c[nH]c(=O)cc2C(F)(F)F)CC1", "note": "[Example 23, N-[4-fluoro-2-(4-methylpiperazin-1-yl)-5-(1,2,3,6-tetrahydropyridin-4-yl)phenyl]-6-oxo-4-(trifluoromethyl)-1H-pyridine-3-carboxamide]", "IC50": "> 10000"},
      {"smiles": "CN1CCN(c2cc(F)ccc2NC(=O)c2c[nH]c(=O)cc2C(F)(F)F)CC1", "note": "[Example 24, N-[4-fluoro-2-(4-methylpiperazin-1-yl)phenyl]-6-oxo-4-(trifluoromethyl)-1H-pyridine-3-carboxamide]", "IC50": "> 10000"},
      {"smiles": "Cc1cc(C(=O)Nc2cc(-c3cnc(N4CCOCC4)nc3)c(F)cc2N2C[C@@H](C)N(C)[C@@H](C)C2)ccc1F", "note": "[Example 25, 4-fluoro-N-[4-fluoro-5-(2-morpholin-4-ylpyrimidin-5-yl)-2-[(3R,5S)-3,4,5-trimethylpiperazin-1-yl]phenyl]-3-methylbenzamide]", "IC50": "> 10000"},
      {"smiles": "C[C@@H]1CN(c2cc(F)ccc2NC(=O)c2c[nH]c(=O)cc2C(F)(F)F)C[C@H](C)N1C", "note": "[Example 26, N-[4-fluoro-2-[(3R,5S)-3,4,5-trimethylpiperazin-1-yl]phenyl]-6-oxo-4-(trifluoromethyl)-1H-pyridine-3-carboxamide]", "IC50": "> 10000"},
      {"smiles": "Cc1cc(C(=O)Nc2cc(-c3cnc(N4CCOCC4)nc3)c(F)cc2N2C[C@@H](C)N(C)[C@@H](C)C2)cc(C)c1F", "note": "[Example 28, 4-fluoro-N-[4-fluoro-5-(2-morpholin-4-ylpyrimidin-5-yl)-2-[(3R,5S)-3,4,5-trimethylpiperazin-1-yl]phenyl]-3,5-dimethylbenzamide]", "IC50": 2760},
      {"smiles": "C[C@@H]1CN(c2cc(F)c(-c3ccc(N4CCOCC4)cc3)cc2NC(=O)c2c[nH]c(=O)cc2C(F)(F)F)C[C@H](C)N1C", "note": "[Example 29, N-[4-fluoro-5-(4-morpholin-4-ylphenyl)-2-[(3R,5S)-3,4,5-trimethylpiperazin-1-yl]phenyl]-6-oxo-4-(trifluoromethyl)-1H-pyridine-3-carboxamide]", "IC50": 45},
      {"smiles": "CN1CCN(c2cc(F)c(-c3ccc(OC4CCOCC4)nc3)cc2NC(=O)c2c[nH]c(=O)cc2C(F)(F)F)CC1", "note": "[Example 30, N-[4-fluoro-2-(4-methylpiperazin-1-yl)-5-[6-(oxan-4-yloxy)pyridin-3-yl]phenyl]-6-oxo-4-(trifluoromethyl)-1H-pyridine-3-carboxamide]", "IC50": 210},
      {"smiles": "C[C@@H]1CN(c2cc(F)c(-c3cnc(C#N)nc3)cc2NC(=O)c2c[nH]c(=O)cc2C(F)(F)F)C[C@H](C)N1C", "note": "[Example 31, N-[5-(2-cyanopyrimidin-5-yl)-4-fluoro-2-[(3S,5R)-3,4,5-trimethylpiperazin-1-yl]phenyl]-6-oxo-4-(trifluoromethyl)-1H-pyridine-3-carboxamide]", "IC50": 571},
      {"smiles": "C[C@@H]1CN(c2cc(F)c(-c3ccc(N4CCOCC4)nc3)cc2NC(=O)c2c[nH]c(=O)cc2C(F)(F)F)C[C@H](C)N1C", "note": "[Example 32, N-[4-fluoro-5-(6-morpholin-4-ylpyridin-3-yl)-2-[(3S,5R)-3,4,5-trimethylpiperazin-1-yl]phenyl]-6-oxo-4-(trifluoromethyl)-1H-pyridine-3-carboxamide]", "IC50": 67},
      {"smiles": "Cc1ncc(-c2cc(NC(=O)c3c[nH]c(=O)cc3C(F)(F)F)c(N3C[C@@H](C)N(C)[C@@H](C)C3)cc2F)cn1", "note": "[Example 33, N-[4-fluoro-5-(2-methylpyrimidin-5-yl)-2-[(3S,5R)-3,4,5-trimethylpiperazin-1-yl]phenyl]-6-oxo-4-(trifluoromethyl)-1H-pyridine-3-carboxamide]", "IC50": 72},
      {"smiles": "C[C@@H]1CN(c2cc(F)c(-c3cnc(N4CCOCC4)nc3)cc2NC(=O)c2c[nH]c(=O)cc2C(F)F)C[C@H](C)N1C", "note": "[Example 34, 4-(difluoromethyl)-N-[4-fluoro-5-(2-morpholin-4-ylpyrimidin-5-yl)-2-[(3S,5R)-3,4,5-trimethylpiperazin-1-yl]phenyl]-6-oxo-1H-pyridine-3-carboxamide]", "IC50": 38},
      {"smiles": "C[C@@H]1CN(c2cc(F)c(-c3cccnc3)cc2NC(=O)c2c[nH]c(=O)cc2C(F)(F)F)C[C@H](C)N1C", "note": "[Example 35, N-[4-fluoro-5-pyridin-3-yl-2-[(3R,5S)-3,4,5-trimethylpiperazin-1-yl]phenyl]-6-oxo-4-(trifluoromethyl)-1H-pyridine-3-carboxamide]", "IC50": 669},
      {"smiles": "C[C@@H]1CN(c2cc(F)c(-c3ccncc3)cc2NC(=O)c2c[nH]c(=O)cc2C(F)(F)F)C[C@H](C)N1C", "note": "[Example 36, N-[4-fluoro-5-pyridin-4-yl-2-[(3R,5S)-3,4,5-trimethylpiperazin-1-yl]phenyl]-6-oxo-4-(trifluoromethyl)-1H-pyridine-3-carboxamide]", "IC50": 850},
      {"smiles": "CN(C)[C@@H]1CCN(c2cc(F)c(-c3cnc(N4CCOCC4)nc3)cc2NC(=O)c2c[nH]c(=O)cc2C(F)(F)F)C1", "note": "[Example 37, N-[2-[(3R)-3-(dimethylamino)pyrrolidin-1-yl]-4-fluoro-5-(2-morpholin-4-ylpyrimidin-5-yl)phenyl]-6-oxo-4-(trifluoromethyl)-1H-pyridine-3-carboxamide]", "IC50": 54},
      {"smiles": "CN(C)[C@H]1CCN(c2cc(F)c(-c3cnc(N4CCOCC4)nc3)cc2NC(=O)c2c[nH]c(=O)cc2C(F)(F)F)C1", "note": "[Example 38, N-[2-[(3S)-3-(dimethylamino)pyrrolidin-1-yl]-4-fluoro-5-(2-morpholin-4-ylpyrimidin-5-yl)phenyl]-6-oxo-4-(trifluoromethyl)-1H-pyridine-3-carboxamide]", "IC50": 4070},
      {"smiles": "CN1CCN(c2cc(F)c(-c3cnc(N(C)C)nc3)cc2NC(=O)c2c[nH]c(=O)cc2C(F)(F)F)CC1", "note": "[Example 40, N-[5-[2-(dimethylamino)pyrimidin-5-yl]-4-fluoro-2-(4-methylpiperazin-1-yl)phenyl]-6-oxo-4-(trifluoromethyl)-1H-pyridine-3-carboxamide]", "IC50": "> 10000"},
      {"smiles": "CN1CCN(c2cc(F)c(-c3ccc(CN4CCOCC4)nc3)cc2NC(=O)c2c[nH]c(=O)cc2C(F)(F)F)CC1", "note": "[Example 41, N-[4-fluoro-2-(4-methylpiperazin-1-yl)-5-[6-(morpholin-4-ylmethyl)pyridin-3-yl]phenyl]-6-oxo-4-(trifluoromethyl)-1H-pyridine-3-carboxamide]", "IC50": 213},
      {"smiles": "CC1CN(c2cc(F)c(-c3cccc(CN4CCOCC4)c3)cc2NC(=O)c2c[nH]c(=O)cc2C(F)(F)F)CCN1C", "note": "(centres unmarked) [Example 45, N-(4-(3,4-dimethylpiperazin-1-yl)-6-fluoro-3′-(morpholinomethyl)-[1,1′-biphenyl]-3-yl)-6-oxo-4-(trifluoromethyl)-1,6-dihydropyridine-3-carboxamide]", "IC50": 491},
      {"smiles": "CN1CCN(c2cc(F)c(-c3ccnc(N4CCOCC4)c3)cc2NC(=O)c2c[nH]c(=O)cc2C(F)(F)F)CC1", "note": "[Example 46, N-(4-fluoro-2-(4-methylpiperazin-1-yl)-5-(2-morpholinopyridin-4-yl)phenyl)-6-oxo-4-(trifluoromethyl)-1,6-dihydropyridine-3-carboxamide]", "IC50": 2900}
    ]}
  ]
}
